Bounds are passed on as bounds.

The nature of data set [1]: Metabolic stability in human liver microsomes (Human MST). The data set is classed as in vitro ADME. Particulars: pooled human liver microsomes, pH 7.6; human liver microsomes 1 mg/mL, 1 μM compound, NADPH 1 mM, 37° C.; read-out: Human MST t1/2. As to the method: Assessment of Metabolic Stability in Human Liver Microsomes (Human MST) The metabolic stability of the compounds according to the invention may be investigated as follows: The metabolic degradation of the test compound is assayed at 37° C. with pooled human liver microsomes. The final incubation volume of 100 μL per time point contains TRIS buffer pH 7.6 at room temperature (0.1 M), MgCl2 (5 mM), microsomal protein (1 mg/mL) and the test compound at a final concentration of 1 μM. Following a short pre-incubation period at 37° C., the reactions are initiated by addition of beta-nicotinamide adenine dinucleotide phosphate, reduced form (NADPH, 1 mM), and terminated by transferring an aliquot into solvent after different time points. After centrifugation (10000 g, 5 min), an aliquot of the supernatant is assayed by LCMS/MS for the amount of parent compound. The half-life (t½) is determined by the slope of the semi-logarithmic plot of the concentration-time profile.

The target of data set [2] is T1, α5β2γ2 GABAA receptor (Homo sapiens, UniProt P18507+P31644).
T1 sequence (P31644 32-462): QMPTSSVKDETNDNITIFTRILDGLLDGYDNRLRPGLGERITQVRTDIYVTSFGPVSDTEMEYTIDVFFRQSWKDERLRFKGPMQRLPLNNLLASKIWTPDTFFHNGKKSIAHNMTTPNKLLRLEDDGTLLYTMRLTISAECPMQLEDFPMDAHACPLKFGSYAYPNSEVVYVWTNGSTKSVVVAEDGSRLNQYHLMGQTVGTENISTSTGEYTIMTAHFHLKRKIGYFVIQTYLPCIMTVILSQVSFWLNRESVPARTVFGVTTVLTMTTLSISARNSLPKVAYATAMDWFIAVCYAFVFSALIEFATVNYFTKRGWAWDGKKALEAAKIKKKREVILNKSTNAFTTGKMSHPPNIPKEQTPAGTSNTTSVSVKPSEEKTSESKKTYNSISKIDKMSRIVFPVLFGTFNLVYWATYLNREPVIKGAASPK
T1 sequence (P18507 40-376 limits assumed): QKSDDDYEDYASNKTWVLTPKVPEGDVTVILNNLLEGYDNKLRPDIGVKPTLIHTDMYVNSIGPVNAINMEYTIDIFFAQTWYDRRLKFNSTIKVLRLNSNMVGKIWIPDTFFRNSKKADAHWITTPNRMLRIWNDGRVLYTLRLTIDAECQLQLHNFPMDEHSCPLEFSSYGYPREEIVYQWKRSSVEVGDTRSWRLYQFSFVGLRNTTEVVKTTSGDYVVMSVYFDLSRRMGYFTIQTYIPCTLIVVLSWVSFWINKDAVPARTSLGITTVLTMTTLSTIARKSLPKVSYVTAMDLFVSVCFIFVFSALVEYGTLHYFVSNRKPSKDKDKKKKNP
The data set can be described thus: Assay B: modulation of α5β2γ2 GABAA receptor, two-electrode voltage clamp in oocytes. The data set is classed as cell-based. Particulars: for EC50: oocytes, TEVC, co-application with GABA 0.5 μM (EC5-20), read-out: Assay B: GABAA α5β3γ2 EC50. How it is done:
Assay B: In vitro evaluation of modulation of α5β2γ2 GABAA receptor.
Modulatory efficacy of compounds of formula (I) is determined electrophysiological recordings in oocytes using the two-electrode voltage clamp (TEVC) technique. Oocytes are injected with cRNA for human GABAA receptor subunits α5, β2 and γ2 in a 3:1:3 ratio and modulatory efficacy is evaluated by co-applications with a submaximal EC5-20 GABA concentration (0.5 μM) termed GABA control. As a standard, the compounds are tested in five concentrations (3.16, 0.316, 0.0316, 0.00316 and 0.000316 μM) on each oocyte starting with the lowest concentration. Background subtracted peak current amplitudes are normalized to the respective GABA control current, converted to % change and depicted +/−S.E.M. as a function of increasing compound concentrations. Plotted datapoints are fitted to the empirical Hill equation using non-linear regression. 95% confidence intervals for maximal efficacy (Bottom) and potency (Log EC50) are derived from this fitting routine.

On to `Cc1nnn(-c2ccc(C(F)F)cc2)c1COc1ccc(-n2ccc(C(N)=O)n2)nn1` [Example 21], for which the half-life at 1 μM in data set [1] came to 0.617 h. Also, the Assay B: GABAA α5β3γ2 Emax vs GABA in data set [2] turned out to be 2%.
As to `CCn1cc(-c2ccc(OCc3c(C)nnn3-c3ccc(C(F)F)cc3)nn2)cn1` [Example 7], in data set [2], the Assay B: GABAA α5β3γ2 Emax vs GABA was -32% and the EC50 amounted to 6 nM.
As to `Cc1nnn(-c2ccc(C(F)F)cc2)c1COc1ccc(-c2cncnc2)nn1` [Example 22], the half-life at 1 μM in data set [1] is over 2.17 h. Moreover, in data set [2], the Assay B: GABAA α5β3γ2 Emax vs GABA was -17.3% and the EC50 was found to be 0.5 nM.
For `Cc1nnn(-c2ccc(C(F)F)cc2)c1COc1ccc(-n2cc(C#N)cn2)nn1` [Example 31], in that order: over 2.17 h, -23% and 7.4 nM.
In the case of `Cc1nnn(-c2ccc(C(F)F)cc2)c1COc1ccc(-c2cnn(C3CC3)c2)nn1` [Example 9], the half-life at 1 μM in data set [1] is over 2.17 h. Also, in data set [2], the Assay B: GABAA α5β3γ2 Emax vs GABA is -12% and the EC50 turned out to be 47.5 nM.
For `Cc1nnn(-c2ccc(C(F)F)cc2)c1COc1ccc(-n2cnc(C=O)c2)nn1` [Example 17], in that order: 0.167 h, -23% and 1.7 nM.
Take `COC(=O)c1cn(-c2ccc(OCc3c(C)nnn3-c3ccc(C(F)F)cc3)nn2)cn1` [Example 29]: the half-life at 1 μM in data set [1] is 0.433 h. In data set [2], the Assay B: GABAA α5β3γ2 Emax vs GABA was -29% and the EC50 came out at 1.8 nM.
As for `Cc1nnn(-c2ccc(C(F)F)cc2)c1COc1ccc(-n2cc3c(n2)CCNC3=O)nn1` [Example 26], the half-life at 1 μM in data set [1] is over 2.17 h. Also, in data set [2], the Assay B: GABAA α5β3γ2 Emax vs GABA is -27% and the EC50 was 3.4 nM.
The corresponding values for `Cc1ncc(-c2ccc(OCc3c(C)nnn3-c3ccc(C(F)F)cc3)nn2)o1` [Example 6] are over 2.17 h, -33.3% and 6.9 nM.
For `Cc1nnn(-c2ccc(C(F)F)cc2)c1COc1ccc(-n2ccc(C#N)n2)nn1` [Example 20], in data set [2], the Assay B: GABAA α5β3γ2 Emax vs GABA is -19.7% and the EC50 is 4.4 nM.
Take `Cc1nnn(-c2ccc(C(F)F)cc2)c1COc1ccc(-c2cnn(C)c2)nn1` [Example 5]: the half-life at 1 μM in data set [1] was over 2.17 h. Besides, in data set [2], the Assay B: GABAA α5β3γ2 Emax vs GABA was -37.7% and the EC50 turned out to be 5.8 nM.
The corresponding values for `Cc1ncn(-c2ccc(OCc3c(C)nnn3-c3ccc(C(F)F)cc3)nn2)n1` [Example 33] are over 2.17 h, -22% and 11.2 nM.
For `Cc1nnn(-c2ccc(C(F)F)cc2)c1COc1ccc(-n2cnc(C(C)(C)O)c2)nn1` [Example 39, 2-{1-[6-({1-[4-(difluoromethyl)phenyl]-4-methyl-1H-1,2,3-triazol-5-yl}methoxy)pyridazin-3-yl]-1H-imidazol-4-yl}propan-2-ol], in that order: over 2.17 h, -17.3% and 1.8 nM.
For the molecule `Cc1nnn(-c2ccc(C(F)F)cc2)c1COc1ccc(-c2cnc(OCC(C)(C)O)nc2)nn1` [Example 4], the half-life at 1 μM in data set [1] is over 2.17 h. Also, in data set [2], the Assay B: GABAA α5β3γ2 Emax vs GABA was -41.5% and the half-maximal effective concentration (EC50) worked out at 22.8 nM.
The corresponding values for `Cc1nnn(-c2ccc(C(F)F)cc2)c1COc1ccc(-n2cnc(CO)c2)nn1` [Example 38, {1-[6-({1-[4-(difluoromethyl)phenyl]-4-methyl-1H-1,2,3-triazol-5-yl}methoxy)pyridazin-3-yl]-1H-imidazol-4-yl}methanol] are over 2.17 h, -23% and 1.7 nM.
The corresponding values for `Cc1nnn(-c2ccc(C(F)F)cc2)c1COc1ccc(-n2cnc(C(C)O)c2)nn1` (stereo not shown) [Example 40] are over 2.17 h, -17% and 1.9 nM.
The corresponding values for `Cc1nnn(-c2ccc(C(F)F)cc2)c1COc1ccc(-n2ccc(C(F)(F)F)n2)nn1` [Example 24] are 0.517 h, -9% and 76.9 nM.
Take `Cc1cc(-c2ccc(OCc3c(C)nnn3-c3ccc(C(F)F)cc3)nn2)cnn1` [Example 11]: in data set [1], the half-life at 1 μM is over 2.17 h. For the same molecule, in data set [2], the Assay B: GABAA α5β3γ2 Emax vs GABA was -17.6% and the EC50 amounted to 10.3 nM.
The corresponding values for `CNC(=O)c1cn(-c2ccc(OCc3c(C)nnn3-c3ccc(C(F)F)cc3)nn2)cn1` [Example 14] are over 2.17 h, -47.3% and 2.3 nM.
For `Cc1nnn(-c2ccc(C(F)F)cc2)c1COc1ccc(-n2cnc(C(=O)O)c2)nn1` [Example 37, 1-[6-({1-[4-(difluoromethyl)phenyl]-4-methyl-1H-1,2,3-triazol-5-yl}methoxy)pyridazin-3-yl]-1H-imidazole-4-carboxylic acid], in that order: over 2.17 h, -28.2% and 4.7 nM.
For `Cc1n[nH]c(C)c1-c1ccc(OCc2c(C)nnn2-c2ccc(C(F)F)cc2)nn1` [Example 12, 3-({1-[4-(difluoromethyl)phenyl]-4-methyl-1H-1,2,3-triazol-5-yl}methoxy)-6-(3,5-dimethyl-1H-pyrazol-4-yl)pyridazine], in that order: 0.417 h, -26% and 13 nM.
`Cc1nnn(-c2ccc(C(F)F)cc2)c1COc1ccc(-n2cc(C(F)(F)F)cn2)nn1` [Example 25]: the half-life at 1 μM in data set [1] was over 2.17 h. Besides, in data set [2], the Assay B: GABAA α5β3γ2 Emax vs GABA was -0.7%.
With `CC(=O)c1cn(-c2ccc(OCc3c(C)nnn3-c3ccc(C(F)F)cc3)nn2)cn1` [Example 32], the half-life at 1 μM in data set [1] is over 2.17 h. In addition, in data set [2], the Assay B: GABAA α5β3γ2 Emax vs GABA is -22.8% and the EC50 is 5.7 nM.
For `Cc1nnn(-c2ccc(C(F)F)cc2)c1COc1ccc(-n2cnc(C[N+](C)(C)C)c2)nn1.O=C([O-])C(F)(F)F` [Example 36, ({1-[6-({1-[4-(difluoromethyl)phenyl]-4-methyl-1H-1,2,3-triazol-5-yl}methoxy)pyridazin-3-yl]-1H-imidazol-4-yl}methyl)trimethylazanium trifluoroacetate], in that order: over 2.17 h, -31.5% and 6.2 nM.
For the molecule `COc1ncc(-c2ccc(OCc3c(C)nnn3-c3ccc(C(F)F)cc3)nn2)cn1` [Example 3], in data set [2], the Assay B: GABAA α5β3γ2 Emax vs GABA is -44.3% and the half-maximal effective concentration (EC50) came to 13.5 nM.
In the case of `Cc1nnn(-c2ccc(C(F)F)cc2)c1COc1ccc(-n2cnc(C(F)F)c2)nn1` [Example 15], the half-life at 1 μM in data set [1] is over 2.17 h. In data set [2], the Assay B: GABAA α5β3γ2 Emax vs GABA was -42.5% and the half-maximal effective concentration (EC50) was 1.4 nM.
For `Cc1nnn(-c2ccc(C(F)F)cc2)c1COc1ccc(-n2cnc(Cl)c2)nn1` [Example 18], in that order: over 2.17 h, -27.5% and 3.7 nM.
The corresponding values for `Cc1nnn(-c2ccc(C(F)F)cc2)c1COc1ccc(-c2cncc(-n3ccnc3)c2)nn1` [Example 8] are 1.22 h, -19.5% and 17 nM.
The corresponding values for `Cc1nnn(-c2ccc(C(F)F)cc2)c1COc1ccc(-n2cnc(S(C)(=O)=O)c2)nn1` [Example 19] are over 2.17 h, -25% and 7.7 nM.
